Results as given in patent US9180171B2, “Method of regulating fertilizing ability using cyclic ADP-ribose and CD38” (Industrial Cooperation Foundation Chonbuk National …, priority 2011, dated 2015).
“Also recorded” adds a separate entry of the source.

Assays:
[1] = test system: sperm; experiment: Measurement of calcium in sperm cells (fluo-3, confocal microscopy); assay type: cell-based, human
Protocol: In order to measure intracellular calcium release, the sperm suspension pretreated with fluo-3 (molecular probe, USA) was titrated in a confocal dish (SPL, Seoul, Korea) coated with poly-L-lysine (Sigma-Aldrich, USA) and was allowed to react in a CO2 incubator for 20 minutes to attach the cells. Calcium in the cells was measured by a confocal microscopy system (Nikon) using the method of Tsien et al. (Tsien et al., Nature 295, 68-71 (1982)).

[2] = test system: mouse oocytes; experiment: In vitro fertilization test; assay type: cell-based, mice; conditions: prostasome-bound sperm pretreated with antagonist
Protocol: In vitro fertilization was performed using a modification of the method of Ren et al. (Ren et al., Nature 413, 603-609 (2001)). 10-12-week-old mice were injected with pregnant mare serum gonadotropin (PMSG) (5 IU; Sigma-Aldrich), and after 48 hours, injected with human chorionic gonadotropin (hCG) (5 IU; Sigma-Aldrich). 14 hours after the final injection, the uterine tube was removed and perfused with IVF medium (Medicult, USA), and the released oocytes were collected using a low-magnification microscope. In order to collect sperm, the epididymis of male mice was removed and cut into small pieces with scissors in the same medium, and swum-out sperm were collected. The number of cells in the sperm was measured, and the sperm were used in the test.

[3] = test system: sperm; experiment: Test for motility of sperm by CD38; assay type: cell-based; conditions: for CD38-induced increase in motility of sperm with inhibitor: sperm treated with inhibitor, then CD38; for motility of sperm: sperm treated with CD38
Protocol: The relationship between CD31 activation by CD38 and sperm motility was analyzed. […] Also, it was seen that, when sperm were treated with the ERK1/2 inhibitor PD98059 and the ras-GTP inhibitor (FTI-277) and then treated with CD38, the increase in the motility of the sperm was inhibited.

[4] = test system: sperm; experiment: Acrosome reaction of sperm by CD38 (ConA-FITC, A23187); assay type: cell-based; conditions: for acrosome reaction of CD38-treated sperm with inhibitor: inhibitor of downstream signaling of CD31
Protocol: To examine the acrosome reaction of sperm, ConA-FITC binding specifically to the acrosome of sperm was used. The isolated sperm were allowed to react with purified CD38 at 37° C. for 2 hours, and then were treated for 40 min with calcium ionophore A23187 that increases calcium in sperm to induce the acrosome reaction of sperm. Then, the sperm were placed on a glass slide, and the acrosome reaction of the sperm was examined with a fluorescence microscope.

[5] = test system: sperm; experiment: Test for sperm motility by prostasome (CASA); assay type: cell-based, human; conditions: prostasome-bound sperm treated with progesterone
Protocol: Sperm motility was measured using a CASA (computer assisted sperm analysis) system (IVOS, Hamilton Thorne Biosciences, USA). The sperm suspension was titrated onto a sperm analysis slide (2X-CEL, Hamilton Thorne Biosciences, USA) having a depth of 20 μm and was automatically photographed using a 4× magnification lens, followed by analysis.

[6] = test system: sperm; experiment: Formation of cGDPR, cyclic ADP-ribose and NAADP in prostasome-bound or -unbound sperm; assay type: cell-based, human
Protocol: The isolated sperm were diluted with a weakly alkaline buffer or fusion buffer (150 mM NaCl, 1 mM CaCl2, 1 mM MgCl2, 5 mM glucose with either 2 mM Hepes (pH 8.0) or 20 mM MES (pH 5.0, fusion buffer)) containing 0.32 M sucrose. The dilution was mixed with prostasome such that the ratio of prostasome:sperm protein was 2:1. The mixture was allowed to react at 37° C. for 15 minutes. The reaction product was centrifuged at 600×g for 10 minutes, and the precipitate was collected, resuspended in BWW buffer and used in the experiment. […] Also, the binding of prostasome was the highest at a pH of 5.0 similar to the internal acidity of the female vagina and decreased toward alkaline pH values. […] In order to examine the formation of cyclic ADP-ribose and nicotinic acid adenine dinucletide phosphate which are typical metabolites of CD38, the sperm to which prostasome was unbound or bound was treated with progesterone, after which the level of each molecule in the sperm was measured at varying points of time.

[7] = target: T1, CD31 (Homo sapiens, UniProt P16284); experiment: Test for activation of CD31 in sperm by CD38 (immunoprecipitation, Western blot); assay type: cell-based; conditions: sperm treated with 600 ng/ml CD38 for 0, 15, 30 min
T1 construct: endogenous in cells; host or cells: isolated sperm
Protocol: In order to test the activation of CD31 in sperm, the isolated sperm were treated with 600 ng/ml CD38 for each of 0 min, 15 min and 30 min, and then buffer was added thereto to lyse the cells. Also, CD31 antibody was used to perform immunoprecipitation, and Western blot was performed using each antibody in order to examine the phosphorylation of CD31 and to examine interacting proteins.

With `N=c1c2nc(Br)n3c2ncn1C1OC(COP(=O)(O)OP(=O)(O)OCC2OC3C(O)C2O)C(O)C1O` (stereo not drawn) [8-Br-cADPR] the “pattern of a continuous increase in calcium by progesterone” value ([1]; prostasome-bound sperm pretreated with antagonist, then progesterone) was “inhibited” and the “reduction of fertilizing ability” value [2] was “about 70%”.
`COC(=O)[C@H](CCSC)NC(=O)c1ccc(NC[C@@H](N)CS)cc1-c1ccccc1` [FTI-277] was tested, and the “CD38-induced increase in motility of sperm with inhibitor” value [3] was “inhibited”.
`COc1cccc(-c2cc(=O)c3ccccc3o2)c1N` [PD98059] was tested, and the “CD38-induced increase in motility of sperm with inhibitor” value [3] was “inhibited” and the “acrosome reaction of CD38-treated sperm with inhibitor” value [4] was “inhibited”.
In the case of `CN(C)S(=O)(=O)c1ccc2c(c1)/C(=C/c1cc3c([nH]1)CCCC3)C(=O)N2` [Su6656], the “acrosome reaction of CD38-treated sperm with inhibitor” value [4] is reported as “inhibited”.
With `CC(=O)[C@H]1CC[C@H]2[C@@H]3CCC4=CC(=O)CC[C@]4(C)[C@H]3CC[C@]12C` [progesterone] the “intracellular calcium release by progesterone” value ([1]; prostasome-bound sperm) was “intracellular calcium release immediately occurred”, the “intracellular calcium reaction by progesterone” value ([1]; prostasome-unbound sperm) was “immediate calcium reaction” and the “increase of sperm motility” value [5] was “about 2 times”. The “formation of nicotinic acid adenine dinucletide phosphate in sperm” value ([6]; prostasome-bound or -unbound sperm treated with progesterone) was “not formed” and the “synthesis of cyclic ADP-ribose in sperm” value ([6]; prostasome-bound sperm treated with progesterone, within several seconds) was “rapidly increased”.
For “CD38: purified water-soluble CD38 (sCD38), ADP-ribosyl cyclase, a cell membrane protein”, the motility of sperm [3] was “significantly increased”, the motility of sperm ([3]; listed as sCD38) was “increased” and the “acrosome reaction of sperm” value ([4]; sperm with purified CD38 at 37° C. for 2 hours, then A23187 40 min) was “significantly increased”. The “phosphorylation of CD31” value [7] was “increased with time; also recorded: increased over time”.
